Measurements published in US11142504B2, “Substituted heterocycles as c-MYC targeting agents” (Northwestern University, priority 2016, dated 2021).

Assays:
MycCap cells = test: Cell viability of MycCap cells; type: cell-based; conditions: Mus musculus, Myc-CaP
MYC/Max binding to DNA = MYC/Max binding to DNA (Homo sapiens, UniProt P01106); test: Electrophoretic mobility shift assay (EMSA)
Method: We also tested our best hit compound Min9 (NUCC-0176234) and newly synthesized analogs for effects of these compounds on MYC/Max binding to DNA in electrophoretic mobility shift assays (EMSAs). (See FIG. 5a and FIG. 5b). We expected the active compounds to impair MYC/Max binding to DNA. Several structural analogs of Min9 were tested over multiple doses for inhibiting MYC-DNA binding and we observed a dose-dependent inhibition. (See FIG. 5c).

[1] = Stability in mouse liver microsomes; type: in vitro ADME; conditions: % remaining of compound after 60 min treatment with mouse liver microsomes
Method: In vitro metabolism of NUCC-176242 and NUCC-176248 were tested using mouse liver microsomes and a mouse S9 fraction. (See FIG. 9).

PC12 cells = test: Cell viability of PC12 cells; type: cell-based; conditions: Rattus norvegicus, PC-12; Cell viability of PC12 cells
Method: PC3 prostate cancer cell line with high Myc level and PC12 pheochromocytoma tumor cell line with non functional Max protein, which is not dependent on Myc-Max complex, were phased from ATCC. Cells were plated in 96 well plate at 1000 cells per well, and Myc inhibitor 361 at various concentrations was added to the cells next day. After 3 days of treatment, fresh medium with 361 were added again, and cell viability was measured by MTS assay at day 5 after the treatment. (See FIG. 11).

Sequence of MYC/Max binding to DNA (P01106 whole entry, species assumed): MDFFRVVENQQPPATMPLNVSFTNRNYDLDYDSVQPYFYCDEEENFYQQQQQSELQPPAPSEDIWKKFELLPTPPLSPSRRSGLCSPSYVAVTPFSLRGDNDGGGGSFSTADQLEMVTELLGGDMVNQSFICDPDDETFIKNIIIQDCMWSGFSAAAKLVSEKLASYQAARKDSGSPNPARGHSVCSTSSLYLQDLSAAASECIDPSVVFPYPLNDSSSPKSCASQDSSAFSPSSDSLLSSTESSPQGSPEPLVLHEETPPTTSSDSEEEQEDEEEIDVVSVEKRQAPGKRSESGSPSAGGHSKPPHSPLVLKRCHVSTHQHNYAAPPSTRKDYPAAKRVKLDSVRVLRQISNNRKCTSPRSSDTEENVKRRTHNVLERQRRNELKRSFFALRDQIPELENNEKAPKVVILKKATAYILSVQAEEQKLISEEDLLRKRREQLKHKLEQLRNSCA

Row | Compound | IC50 (MycCap cells) [µM] | IC50 (MYC/Max binding to DNA) [µM] | MLM % at 60 min [1] [%] | IC50 (PC12 cells) [µM]
1 | CCc1ccc(Oc2c(-c3ccc(OCCc4cccc(C(F)(F)F)c4)cc3O)n[nH]c2C(F)(F)F)cc1 [NUCC-0176245] | 4.1 | – | – | –
2 | COc1ccc(-c2c(-c3ccc(OCc4ccc(Cl)cc4)cc3O)n[nH]c2C(F)(F)F)cc1OC [NUCC-0196283] | 2.3 | – | – | –
3 | CCc1ccc(Oc2c(-c3ccc(OCc4cccc(Cl)c4)cc3O)n[nH]c2C(F)(F)F)cc1 [NUCC-0196295] | 12.2 | – | – | –
4 | COc1ccc(-c2c(-c3ccc(OCc4ccc(Cl)cc4)cc3O)n[nH]c2C(F)(F)F)cc1 [NUCC-0196312] | 4.8 | – | – | –
5 | Oc1cc(OCc2ccc(Cl)cc2)ccc1-c1cc(C(F)(F)F)[nH]n1 [NUCC-0196313] | 4.2 | – | – | –
6 | Cc1ccc(-c2c(OCc3ccc(Cl)cc3)ccc(-c3cc(C(F)(F)F)[nH]n3)c2O)cc1 [NUCC-0196344] | 6.6 | – | – | –
7 | Cn1nc(-c2ccc(OCc3ccc(Cl)cc3)c(-c3ccc(F)cc3)c2O)cc1C(F)(F)F [NUCC-0196348] | 110 | – | – | –
8 | Oc1cc(OCc2ccc(Cl)cc2)ccc1-c1n[nH]cc1-c1cccc(Cl)c1 [NUCC-0196350] | 4.3 | – | – | –
9 | CCc1ccc(Oc2c(-c3ccc(OCc4ccc(Cl)c(Cl)c4)cc3O)n[nH]c2C(F)(F)F)cc1 [NUCC-0196355] | 11.8 | – | – | –
10 | CCc1ccc(Oc2c(-c3ccc(OCCc4ccc(Cl)cc4)cc3O)n[nH]c2C(F)(F)F)cc1 [NUCC-0196357] | 6.9 | – | – | –
11 | Cn1nc(-c2ccc(OCc3ccc(Cl)cc3)c(-c3cc(C(F)(F)F)cc(C(F)(F)F)c3)c2O)cc1C(F)(F)F [NUCC-0196360] | 39.6 | – | – | –
12 | Oc1c(-c2cc(C(F)(F)F)[nH]n2)ccc(OCc2ccc(Cl)cc2)c1-c1cc(C(F)(F)F)cc(C(F)(F)F)c1 [NUCC-0196362] | 4 | 102 | – | –
13 | Oc1cc(OCc2ccc(Cl)cc2)ccc1-c1n[nH]c(C(F)(F)F)c1-c1ccccc1 [NUCC-0198295] | 4.6 | 53.3 | – | –
14 | Oc1cc(OCc2ccc(Cl)cc2)ccc1-c1n[nH]cc1-c1cc(C(F)(F)F)cc(C(F)(F)F)c1 [NUCC-0198318] | 4.3 | – | – | –
15 | Oc1cc(OCc2ccc(Cl)cc2)ccc1-c1n[nH]cc1-c1ccoc1 [NUCC-0198322] | 6.5 | – | – | –
16 | Cc1cc(C)c(-c2c[nH]nc2-c2ccc(OCc3ccc(Cl)cc3)cc2O)c(C)c1 [NUCC-0198359] | 7.6 | – | – | –
17 | N#Cc1ccc(-c2c(OCc3ccc(Cl)cc3)ccc(-c3cc(C(F)(F)F)[nH]n3)c2O)cc1 [NUCC-0198391] | 3.4 | – | – | –
18 | NC(=O)c1ccc(-c2c(OCc3ccc(Cl)cc3)ccc(-c3cc(C(F)(F)F)[nH]n3)c2O)cc1 [NUCC-0198394] | 7.3 | – | – | –
19 | N#Cc1cccc(-c2c(OCc3ccc(Cl)cc3)ccc(-c3cc(C(F)(F)F)[nH]n3)c2O)c1 [NUCC-0198398] | 4.3 | – | – | –

Row | Compound | IC50 (MycCap cells) [µM] | IC50 (MYC/Max binding to DNA) [µM] | MLM % at 60 min [1] [%] | IC50 (PC12 cells) [µM]
20 | Cn1nc(C(F)(F)F)cc1-c1ccc(OCc2ccc(Cl)cc2)c(-c2cccc(C#N)c2)c1O [NUCC-0198399] | 2.5 | – | 80.3 | –
21 | CCc1ccc(Oc2c(-c3ccc(O)cc3O)n[nH]c2C(F)(F)F)cc1 [NUCC-0198406] | 17.5 | – | – | –
22 | Cn1nc(C(F)(F)F)cc1-c1ccc(OCc2ccc(Cl)cc2)c(Br)c1O [NUCC-0198407] | 7.8 | – | – | –
23 | Cn1nc(-c2ccc(OCc3ccc(Cl)cc3)c(-c3cccc(C#N)c3)c2O)cc1C(N)=O [NUCC-0200558] | 49.3 | – | – | 31
24 | CCc1c(OCc2ccc(Cl)cc2)ccc(-c2cc(C(F)(F)F)n[nH]2)c1O [NUCC-0200739] | 2.2 | – | 46.4 | 19.4
25 | CCOC(=O)c1cc(-c2ccc(OCc3ccc(Cl)cc3)c(-c3cc(C(F)(F)F)cc(C(F)(F)F)c3)c2O)n[nH]1 [NUCC-0200972] | 5.1 | – | 60.3 | 81
26 | O=C(O)c1cc(-c2ccc(OCc3ccc(Cl)cc3)c(-c3cc(C(F)(F)F)cc(C(F)(F)F)c3)c2O)n[nH]1 [NUCC-0200973] | 68.3 | – | – | 29.6
27 | Cn1nc(C(F)(F)F)cc1-c1ccc(OCc2ccc(Cl)cc2)c(-c2cccc(C(F)(F)F)c2)c1O [NUCC-0200974] | 10.2 | – | – | –
28 | Cn1nc(C(F)(F)F)cc1-c1ccc(OCc2ccc(Cl)cc2)cc1C=O [NUCC-0200976] | 3.9 | – | 21.8 | 63.3
29 | Oc1c(-c2cc(C(F)(F)F)n[nH]2)ccc(OCCN2CCCC2)c1-c1cc(C(F)(F)F)cc(C(F)(F)F)c1 [NUCC-0201032] | 1 | – | 30.5 | 11
30 | N#Cc1cncc(-c2c(OCc3ccc(Cl)cc3)ccc(-c3cc(C(F)(F)F)n[nH]3)c2O)c1 [NUCC-0201038] | 6.8 | – | – | 18.3
31 | CCOc1ncc(C(F)(F)F)cc1-c1c(OCc2ccc(Cl)cc2)ccc(-c2cc(C(F)(F)F)n[nH]2)c1O [NUCC-0201039] | 13.6 | – | – | –
32 | COc1ccc(COc2ccc(-c3cc(C(F)(F)F)n[nH]3)c(O)c2-c2cc(C(F)(F)F)cc(C(F)(F)F)c2)cc1 [NUCC-0201041] | 12.6 | – | – | 128
33 | CCCCCCOc1ccc(-c2cc(C(F)(F)F)n[nH]2)c(O)c1-c1cncc(C#N)c1 [NUCC-0201194] | 4.2 | – | – | 59.8
34 | CC(C)CCOc1ccc(-c2cc(C(F)(F)F)n[nH]2)c(O)c1-c1cncc(C#N)c1 [NUCC-0201195] | 14.9 | – | – | 70.3
35 | CCCCCCOc1ccc(-c2cc(C(F)(F)F)n[nH]2)c(O)c1-c1cc(C(F)(F)F)cc(C(F)(F)F)c1 [NUCC-0201196] | 4.5 | – | 66.6 | –
36 | CCCOc1ccc(-c2cc(C(F)(F)F)n[nH]2)c(O)c1-c1cc(C(F)(F)F)cc(C(F)(F)F)c1 [NUCC-0201197] | 3.4 | – | – | 18.6
37 | CC(CCOc1ccc(-c2cc(C(F)(F)F)n[nH]2)c(O)c1-c1cc(C(F)(F)F)cc(C(F)(F)F)c1)C(F)(F)F (stereo not drawn) [NUCC-0201198] | 2.6 | – | – | 8.2
38 | [N-]=[N+]=NCCOCCOCCOCC(=O)Nc1ccc(COc2ccc(-c3cc(C(F)(F)F)n[nH]3)c(O)c2-c2cc(C(F)(F)F)cc(C(F)(F)F)c2)cc1 [NUCC-0201199] | 3 | – | – | 12.7

Row | Compound | IC50 (MycCap cells) [µM] | IC50 (MYC/Max binding to DNA) [µM] | MLM % at 60 min [1] [%] | IC50 (PC12 cells) [µM]
39 | O=C1CCC(N2C(=O)c3cccc(OCc4cn(CCOCCOCCOCC(=O)Nc5ccc(COc6ccc(-c7cc(C(F)(F)F)n[nH]7)c(O)c6-c6cc(C(F)(F)F)cc(C(F)(F)F)c6)cc5)nn4)c3C2=O)C(=O)N1 (stereo not drawn) [NUCC-0201202] | 4 | – | – | 23.1
40 | O=C1CCC(N2C(=O)c3cccc(OCc4cn(CCOCCOCCOCCOCC(=O)Nc5ccc(COc6ccc(-c7cc(C(F)(F)F)n[nH]7)c(O)c6-c6cc(C(F)(F)F)cc(C(F)(F)F)c6)cc5)nn4)c3C2=O)C(=O)N1 (stereo not drawn) [NUCC-0201203] | 32.4 | – | – | –
41 | CCCCOc1ccc(-c2cc(C(F)(F)F)nn2C)c(O)c1-c1cncc(C(F)(F)F)c1 [NUCC-0201204] | 23 | – | – | –
42 | CCCCCCOc1ccc(-c2cc(C(F)(F)F)nn2C)c(O)c1-c1cncc(C(F)(F)F)c1 [NUCC-0201205] | 9.5 | – | – | 36.3
43 | CC(C)CCOc1ccc(-c2cc(C(F)(F)F)nn2C)c(O)c1-c1cncc(C(F)(F)F)c1 [NUCC-0201206] | 5 | – | – | –
44 | CCCCCCOc1ccc(-c2cc(C(F)(F)F)nn2C)c(O)c1-c1cncc(C#N)c1 [NUCC-0201207] | 5.7 | – | 52.7 | –
45 | CCCCOc1ccc(-c2cc(C(F)(F)F)n(C)n2)c(O)c1-c1cncc(C(F)(F)F)c1 [NUCC-0201209] | 4.4 | – | 10.3 | –
46 | CCCCCCOc1ccc(-c2cc(C(F)(F)F)n(C)n2)c(O)c1-c1cncc(C#N)c1 [NUCC-0201212] | 23.7 | – | – | 30.8
47 | C#CCOc1ccc(COc2ccc(-c3cc(C(F)(F)F)n[nH]3)c(O)c2-c2cc(C(F)(F)F)cc(C(F)(F)F)c2)cc1 [NUCC-0201219] | 9.5 | – | – | –
48 | COc1ccc(-c2cc(C(F)(F)F)[nH]n2)c(O)c1-c1cc(C(F)(F)F)cc(C(F)(F)F)c1 [NUCC-0201220] | 4.9 | – | – | 91.6
49 | COc1ccc(-c2cc(C(F)(F)F)n(C)n2)c(O)c1-c1cc(C(F)(F)F)cc(C(F)(F)F)c1 [NUCC-0201221] | 1.2 | – | – | –
50 | Oc1c(-c2cc(C(F)(F)F)[nH]n2)ccc(Oc2ccc(Cl)cc2)c1-c1cc(C(F)(F)F)cc(C(F)(F)F)c1 [NUCC-0201223] | 5.1 | – | 75.8 | 40.6
51 | CCCCOc1ccc(-c2cc(C(F)(F)F)n[nH]2)c(O)c1-c1ccc(Cl)c(C(F)(F)F)c1 [NUCC-0201225] | 19 | – | – | 82.6
52 | CCCCOc1ccc(-c2cc(C(F)(F)F)n(C)n2)c(O)c1-c1ccc(Cl)c(C(F)(F)F)c1 [NUCC-0201227] | 4.5 | – | – | 1
53 | Cn1nc(C(F)(F)F)cc1-c1ccc(OCc2ccc(Cl)cc2)c(-c2cncc(C(F)(F)F)c2)c1O [NUCC-0201630] | 15.4 | – | – | 42.3
54 | Cn1nc(-c2ccc(OCc3ccc(Cl)cc3)c(-c3cncc(C#N)c3)c2O)cc1C(F)(F)F [NUCC-0201633] | 4.6 | – | – | 27.3
55 | Cn1nc(-c2ccc(OCCCNC(=O)OC(C)(C)C)c(-c3cncc(C(F)(F)F)c3)c2O)cc1C(F)(F)F [NUCC-0201656] | 5.5 | – | – | 18
56 | C#CCC(N=[N+]=[N-])C(=O)Nc1ccc(COc2ccc(-c3cc(C(F)(F)F)n(C)n3)c(O)c2-c2cncc(C(F)(F)F)c2)cc1 (stereo not drawn) [NUCC-0201699] | 24.3 | – | – | –
